These are literature values, as cited in PMC4844649, “A first-in-Asian phase 1 study to evaluate safety, pharmacokinetics and clinical activity of VS-6063, a focal adhesion kinase (FAK) inhibitor in Japanese patients with advanced solid tumors” (Cancer Chemotherapy and Pharmacology, 2016).

Details of series [1]: method as in earlier work. The settings on record: at the higher doses, phase 1 dose-escalation ref 11, 12; cited from earlier work.
The subject of series [2] is advanced solid tumors. The settings on record: cited from earlier work.
Series [3] has as its system Tregs and CD8 + T cells in the tumor microenvironment. On the set-up: method as in PMID 26406376. To be noted: squamous cell carcinoma model ref 17; cited from earlier work.

Like-named read-outs stand apart in the source and are kept apart here.

Take `COc1cc(C(=O)NC2CCN(C)CC2)c(F)cc1Nc1ncc(C(F)(F)F)c(Oc2cccc3c2C(=O)N(C)C3)n1` [BI 853520]: the dose-limiting toxicities entry in series [1] is “both proteinuria and fatigue were dose-limiting (Grade 3)”. The objective radiographic responses entry in series [2] (phase 1 ref 11, 12) was “No objective radiographic responses”.

`CONC(=O)c1ccccc1Nc1cc(Nc2cc(C)nn2C(C)C)ncc1Cl` [GSK2256098]: the objective radiographic responses result in series [2] (phase 1 ref 15) is given as “No objective radiographic responses”.

Regarding `CN(c1ncccc1CNc1nc(Nc2ccc3c(c2)CC(=O)N3)ncc1C(F)(F)F)S(C)(=O)=O` [PF-00562271], the objective radiographic responses entry in series [2] (phase 1 ref 10) was “No objective radiographic responses”.

For the molecule `CNC(=O)c1ccccc1Nc1cc(Nc2ccc(N3CCOCC3)cc2OC)ncc1C(F)(F)F` [VS-4718], the “effect on Tregs and CD8 + T cell-mediated anti-tumor response” value in series [3] is “drives depletion of Tregs and promotes a CD8 + T cell-mediated anti-tumor response”.
